In ChEMBL document CHEMBL5729474, “Heterocyclic compound as a protein kinase inhibitor” (2022):

Target: Tyrosine-protein kinase JAK1 (Homo sapiens, UniProt P23458)
Assay: ADP-Glo Kinase Assay: A control material and a test material were prepared for each concentration, in such a way that they were diluted by means of DMSO. At the same time, ATP (250 uM) and JAK substrate (JAK1, IRS-itide 40 ng/mL) were prepared, in such a way that they were diluted by means of kinase buffer (40 mM Tris-HCl pH 7.5, 20 mM MgCl2, 0.5 mg/mL BSA, 50 uM DTT).A test drug for each concentration, substrate, ATP and JAK enzyme were mixed in an eppendorf tube, and reacted in a 30° C. incubator for 40 minutes.ADP-Glo™ reagent contained in ADP-Glo™ Kinase Enzyme System (Promega, USA, V9571) was added into each eppendorf tube, and reacted in a 30° C. incubator for 40 minutes. A kinase detection reagent contained in ADP-Go™ Kinase Enzyme System was inserted into the eppendorf tube, then an integration time was set to 1 second by using Wallac Victor 2™, then luminescence was measured, and then JAKs phosphorylation inhibition ability of the test material was analyzed. The concentration of the compound, which causes 50% of the JAK enzyme activity inhibition in comparison With the control group, was determined as IC50 (nM) of an inhibitor, wherein the results thereof are shown in a following table 1.

Tyrosine-protein kinase JAK1, sequence (P23458 whole entry): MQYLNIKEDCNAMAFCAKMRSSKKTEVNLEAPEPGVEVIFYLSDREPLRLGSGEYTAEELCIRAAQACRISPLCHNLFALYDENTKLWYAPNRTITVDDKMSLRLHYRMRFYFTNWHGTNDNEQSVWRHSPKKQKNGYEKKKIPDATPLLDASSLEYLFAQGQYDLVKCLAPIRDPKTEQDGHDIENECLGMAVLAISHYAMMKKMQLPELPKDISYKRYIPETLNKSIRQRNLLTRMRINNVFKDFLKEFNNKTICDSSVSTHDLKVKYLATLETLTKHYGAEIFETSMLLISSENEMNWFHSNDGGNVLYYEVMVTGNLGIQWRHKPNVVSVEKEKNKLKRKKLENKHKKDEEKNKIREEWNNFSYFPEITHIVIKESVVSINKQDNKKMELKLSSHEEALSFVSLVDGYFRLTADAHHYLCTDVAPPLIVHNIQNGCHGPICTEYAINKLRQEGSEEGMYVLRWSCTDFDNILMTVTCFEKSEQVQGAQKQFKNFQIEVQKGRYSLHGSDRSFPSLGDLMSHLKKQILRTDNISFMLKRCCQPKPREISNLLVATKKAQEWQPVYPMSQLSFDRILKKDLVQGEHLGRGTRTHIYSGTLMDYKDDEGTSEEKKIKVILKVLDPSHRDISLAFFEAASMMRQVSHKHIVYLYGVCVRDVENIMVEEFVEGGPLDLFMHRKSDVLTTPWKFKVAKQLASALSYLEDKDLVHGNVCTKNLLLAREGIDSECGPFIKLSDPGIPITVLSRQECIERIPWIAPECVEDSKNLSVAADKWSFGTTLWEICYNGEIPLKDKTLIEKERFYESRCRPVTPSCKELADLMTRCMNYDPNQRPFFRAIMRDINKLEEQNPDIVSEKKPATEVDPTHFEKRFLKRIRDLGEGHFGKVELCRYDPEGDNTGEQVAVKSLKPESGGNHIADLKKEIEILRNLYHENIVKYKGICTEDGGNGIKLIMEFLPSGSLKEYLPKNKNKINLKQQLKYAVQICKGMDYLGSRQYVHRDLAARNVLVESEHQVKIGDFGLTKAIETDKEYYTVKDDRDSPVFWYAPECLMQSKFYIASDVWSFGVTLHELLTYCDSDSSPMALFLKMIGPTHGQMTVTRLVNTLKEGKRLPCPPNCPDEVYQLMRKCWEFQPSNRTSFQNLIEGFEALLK

SMILES | IC50
CCS(=O)(=O)Nc1ccc(-c2cc(NC(=O)C3CCCCC3)nc3[nH]ccc23)cc1F | > 200 nM
CC1CN(C(=O)c2cc(Cl)ncc2Cl)CC=C1c1cc(NC(=O)C2CC2)nc2[nH]ccc12 (centres undefined) | > 200 nM
O=C(Nc1cc(C2=CCN(C(=O)CBr)CC2)c2cc[nH]c2n1)C1CC1 | > 200 nM
CC1CN(C(=O)c2cc(Cl)cc(Cl)c2O)CC=C1c1cc(NC(=O)C2CC2)nc2[nH]ccc12 (centres undefined) | > 200 nM
CCS(=O)(=O)Nc1ccc(-c2cc(NC(=O)C3CCCC3)nc3[nH]ccc23)cc1F | > 200 nM
CCS(=O)(=O)Nc1ccc(-c2cc(NC(=O)Cc3ccccc3)nc3[nH]ccc23)cc1F | > 200 nM
O=C(Nc1ccc(F)cc1)Nc1ccc(-c2cc(NC(=O)C3CC3)nc3[nH]ccc23)cc1 | > 200 nM
O=C(Nc1cc(-c2ccc(CC(=O)N3CCN(S(=O)(=O)C(F)(F)F)CC3)cc2)c2cc[nH]c2n1)C1CC1 | > 200 nM
CCC(=O)Nc1cc(-c2ccc(NS(=O)(=O)CC)c(F)c2)c2cc[nH]c2n1 | > 200 nM
